≈ marks a conversion by molar mass, not a printed value. Where two headings read alike, the source gives them in different places. Positions of bridges follow the written chain, without caps; N, C: chain ends. Non-standard residues stand in square brackets, D forms with d. Residues, ends and D or L forms follow the SMILES beside them. ξ: configuration not given here. *: point of attachment. Pentadecanoyl(3ξ-OH,15-Gua) = N=C(N)NCCCCCCCCCCCCC(O)CC(=O)*; Thr(3ξ) = CC(O)[C@H](N)C(=O)O
Tests used:
Assay type in all cases: cell-based
[1] = system: Vancomycin-resistant Enterococcus faecium (VRE); test: In vitro antimicrobial activity against VRE; details: for VRE IC50: Table 5, extracts tested at 8-200 μg/mL
Procedure: (§1) Fifty organic extracts were prepared from 25 whole broth of four microbial strains (MS1479, MS2379, MS2820, and MS2414), which were fermented in different media for the antimicrobial testing. Note each whole broth culture generated one n-butanol extract from cultural supernatant and one methanol extract from cell pellets.
(§2) The antimicrobial activities of the 50 organic extracts were studied against three fungal pathogens—Candida albicans, Aspergillus fumigatus, and Cryptococcus neoformans—and five bacterial strains-Methicillin-resistant Staphylococcus aureus (MIRSA), Escherichia coli, Pseudomonas aeruginosa, Klebsiella pneumoniae, and Vancomycin-resistant Enterococcus faecium (VRE) (FIG. 2). The test concentrations for all extracts were in the range of 8-200 μg/mL (Table 3).
(§3) The antimicrobial activities of identified fusaricidins were in an in vitro study against several clinically relevant microbes. […] For the in-vitro assays against bacteria, fusaricidins were tested against methicillin-resistant Staphylococcus aureus, vancomycin-resistant Enterococcus faecium, Escherichia coli, and Pseudomonas aeruginosa using four antibacterial drugs methicillin, vancomycin, cefotaxime, and meropenem as controls. […] Fusaricidins were also tested against fungal pathogens Cryptococcus neoformans, Candida albicans, and Aspergillus fumigatus and compared with two antifungal drugs, fluconazole and amphotericin B (Table 13). Moreover, the anti-parasitic activity was also tested against L. donovani and T. brucei (Table 14).

[2] = system: Methicillin-resistant Staphylococcus aureus (MRSA); test: In vitro antimicrobial activity against MRSA
Procedure: as §1, §2, §3

Candida albicans = test: In vitro antimicrobial activity against Candida albicans; details: for IC50: Candida albicans, test conc. 200-8 μg/mL (extracts), 100-4 or 10-0.4 μg/mL (drugs), read-out: C. albicans IC50; for C. albicans IC50: Table 5, extracts tested at 8-200 μg/mL
Procedure: as §1, §2, §3

Cryptococcus neoformans = test: In vitro antimicrobial activity against Cryptococcus neoformans; details: for IC50: Cryptococcus neoformans, test conc. 200-8 μg/mL (extracts), 100-4 or 10-0.4 μg/mL (drugs), read-out: C. neoformans IC50
Procedure: as §1, §2
The potent activities against the fungal pathogen C. neoformans and the gram-positive bacteria S. aureus, MRSA, and M. intracellulare were also shown in the crude extracts (FIG. 7).
as §3

Aspergillus fumigatus = test: In vitro antimicrobial activity against Aspergillus fumigatus; details: for IC50: Aspergillus fumigatus, test conc. 200-8 μg/mL (extracts), 100-4 or 10-0.4 μg/mL (drugs), read-out: A. fumigatus IC50; for A. fumigatus IC50: Table 5, extracts tested at 8-200 μg/mL
Procedure: as §1, §2, §3

Klebsiella pneumoniae = test: In vitro antimicrobial activity against Klebsiella pneumoniae; details: Klebsiella pneumoniae; test conc. 200-8 μg/mL (extracts), 100-4 or 10-0.4 μg/mL (drugs); read-out: K pneumoniae IC50
Procedure: as §1, §2

Escherichia coli = test: In vitro antimicrobial activity against Escherichia coli
Procedure: as §1, §2, §3

Pseudomonas aeruginosa = test: In vitro antimicrobial activity against Pseudomonas aeruginosa
Procedure: as §1, §2, §3

[3] = test conc. 200-8 μg/mL (extracts), 100-4 or 10-0.4 μg/mL (drugs), read-out: VRE IC50
[4] = Escherichia coli, test conc. 200-8 μg/mL (extracts), 100-4 or 10-0.4 μg/mL (drugs), read-out: E. coli IC50
[5] = Pseudomonas aeruginosa, test conc. 200-8 μg/mL (extracts), 100-4 or 10-0.4 μg/mL (drugs), read-out: P. aeruginosa IC50
[6] = Staphylococcus aureus, MRSA, test conc. 200-8 μg/mL (extracts), 100-4 or 10-0.4 μg/mL (drugs), read-out: MRS IC50
[7] = Table 5, extracts tested at 8-200 μg/mL
[8] = Table 12, highest test conc. fusaricidins 20, controls 100 μg/mL
[9] = Table 12, lowest concentration that allows no detectable growth
[10] = Table 13, Vancomycin-resistant Enterococcus faecium ATCC 700221
[11] = Table 13, Escherichia coli ATCC 2452
[12] = Table 13, Pseudomonas aeruginosa ATCC 2108
[13] = Table 13, Methicillin-resistant Staphylococcus aureus ATCC 1708

Compound: Fusaricidin B
- activity against VRE (in words) [1]: strong activity
- activity against MRSA (in words) [2]: strong activity

Compound: OC(Cn1cncn1)(Cn1cncn1)c1ccc(F)cc1F [Fluconazole]
- IC50 (Candida albicans): < 0.1 µg/mL
- C. albicans IC50 (Candida albicans): <0.1 µg/mL
- VRE IC50 [1]: >100 µg/mL
- IC50 [1, 3]: > 100 µg/mL
- IC50 (Cryptococcus neoformans): 2.2 µg/mL (≈ 7.18 µM)
- IC50 (Aspergillus fumigatus): > 100 µg/mL
- A. fumigatus IC50 (Aspergillus fumigatus): >100 µg/mL
- IC50 (Klebsiella pneumoniae): > 100 µg/mL
- IC50 (Escherichia coli; [4]): > 100 µg/mL
- IC50 (Pseudomonas aeruginosa; [5]): > 100 µg/mL
- IC50 [2, 6]: > 100 µg/mL
- MRS IC50 [2, 7]: >100 µg/mL

Compound: CC(C)[C@@H]1NC(=O)[C@@H](C(C)C)NC(=O)[C@@H](NC(=O)CC(O)CCCCCCCCCCCCN=C(N)N)C(C)OC(=O)[C@@H](C)NC(=O)[C@@H](CCC(N)=O)NC(=O)[C@@H]([C@H](C)O)NC1=O (stereo partly drawn) [Fusaricidin B (SQ-1-43B)] ({Pentadecanoyl(3ξ-OH,15-Gua)}-[Thr(3ξ)][dV]V[dT][dQ][dA]; ester 1-C)
- C. albicans IC50 (50% growth inhibitory concentration) (Candida albicans; [8]): 9.1 µg/mL
- C. albicans MIC (minimum inhibitory concentration) (Candida albicans; [9]): 10.0 µg/mL
- VRE IC50 (50% growth inhibitory concentration) [1, 10]: 8.7 µg/mL
- VRE MIC (minimum inhibitory concentration) [1, 10]: 20.0 µg/mL
- C. neoformans IC50 (50% growth inhibitory concentration) (Cryptococcus neoformans; [8]): 1.1 µg/mL
- C. neoformans MIC (minimum inhibitory concentration) (Cryptococcus neoformans; [9]): 2.5 µg/mL
- A. fumigatus IC50 (50% growth inhibitory concentration) (Aspergillus fumigatus; [8]): >20/>20 μg/mL
- A. fumigatus MIC (minimum inhibitory concentration) (Aspergillus fumigatus; [9]): >20/>20 μg/mL
- E. coli IC50 (50% growth inhibitory concentration) (Escherichia coli; [11]): >20/>20 μg/mL
- E. coli MIC (minimum inhibitory concentration) (Escherichia coli; [11]): >20/>20 μg/mL
- P. aeruginosa IC50 (50% growth inhibitory concentration) (Pseudomonas aeruginosa; [12]): >20/>20 μg/mL
- P. aeruginosa MIC (minimum inhibitory concentration) (Pseudomonas aeruginosa; [12]): >20/>20 μg/mL
- MRSA IC50 (50% growth inhibitory concentration) [2, 13]: 4.2 µg/mL
- MRSA MIC (minimum inhibitory concentration) [2, 13]: 5.0 µg/mL

Compound: C[C@@H](O)[C@H]1C(=O)N2C(C(=O)O)=C(S[C@@H]3CN[C@H](C(=O)N(C)C)C3)[C@H](C)[C@H]12 [Meropenem]
- IC50 (Candida albicans): > 100 µg/mL
- C. albicans IC50 (Candida albicans): >100 µg/mL
- IC50 ([1]; ATCC 700221 / VRE, Table 13, Vancomycin-resistant Enterococcus faecium ATCC 700221, read-out: VRE IC50 (50% growth inhibitory concentration)): > 100 µg/mL
- MIC ([1]; ATCC 700221 / VRE, Table 13, Vancomycin-resistant Enterococcus faecium ATCC 700221, read-out: VRE MIC (minimum inhibitory concentration)): > 100 µg/mL
- VRE IC50 [1]: >100 µg/mL
- IC50 [1, 3]: > 100 µg/mL
- IC50 (Cryptococcus neoformans): > 100 µg/mL
- C. neoformans IC50 (Cryptococcus neoformans; [7]): >100 µg/mL
- IC50 (Aspergillus fumigatus): > 100 µg/mL
- A. fumigatus IC50 (Aspergillus fumigatus): >100 µg/mL
- IC50 (Klebsiella pneumoniae): 18.1 µg/mL (≈ 47.3 µM)
- IC50 (Escherichia coli; ATCC2452, Table 13, Escherichia coli ATCC 2452, read-out: E. coli IC50 (50% growth inhibitory concentration)): 5.4 µg/mL (≈ 14.1 µM)
- MIC (Escherichia coli; ATCC2452, Table 13, Escherichia coli ATCC 2452, read-out: E. coli MIC (minimum inhibitory concentration)): 12.5 µg/mL (≈ 32.6 µM)
- IC50 (Escherichia coli; [4]): 11.5 µg/mL (≈ 30 µM)
- IC50 (Pseudomonas aeruginosa; ATCC2108, Table 13, Pseudomonas aeruginosa ATCC 2108, read-out: P. aeruginosa IC50 (50% growth inhibitory concentration)): 5.9 µg/mL (≈ 15.4 µM)
- MIC (Pseudomonas aeruginosa; ATCC2108, Table 13, Pseudomonas aeruginosa ATCC 2108, read-out: P. aeruginosa MIC (minimum inhibitory concentration)): 25 µg/mL (≈ 65.2 µM)
- IC50 (Pseudomonas aeruginosa; [5]): > 100 µg/mL
- IC50 ([2]; ATCC 1708 / MRSA, Table 13, Methicillin-resistant Staphylococcus aureus ATCC 1708, read-out: MRSA IC50 (50% growth inhibitory concentration)): 5.7 µg/mL (≈ 14.9 µM)
- MIC ([2]; ATCC 1708 / MRSA, Table 13, Methicillin-resistant Staphylococcus aureus ATCC 1708, read-out: MRSA MIC (minimum inhibitory concentration)): 12.5 µg/mL (≈ 32.6 µM)
- IC50 [2, 6]: 2.75 µg/mL (≈ 7.17 µM)

Source: US12274732B2, “Anti-pathogen composition and methods of use thereof” (Tenfold Technologies, LLC, priority 2017, dated 2025)
